According to ChEMBL document CHEMBL1255215, “Synthesis and selective anticancer activity of organochalcogen based redox catalysts” (J Med Chem, 2010):
Calls of active or inactive are those of the source. The rule behind the calls is not given here.

Columns and labels:
B-CLL [1] = test: Cytotoxicity against human B-CLL cells assessed as reduction in cell viability; assay type: functional, cell-based
PBMC [2] = test: Cytotoxicity against human PBMC; assay type: cell-based
K562 = test: Cytotoxicity against human K562 cells assessed as cell viability at 10 uM; assay type: functional; settings: read-out: Activity
B-CLL [3] = test: Induction of apoptosis in human B-CLL cells assessed as caspase3 activation by […]; assay type: functional, cell-based
A549 [4] = test: Cytotoxicity against human A549 cells at 0.3 to 0.625 uM; assay type: functional
B-CLL [5] = test: Induction of intracellular ROS level in human B-CLL cells by flow cytometry; assay type: functional, cell-based
PBMC [6] = test: Induction of apoptosis in human PBMC cells assessed as caspase3 activation by […]; assay type: functional, cell-based
HUVEC = test: Cytotoxicity against HUVEC at 1.25 uM; assay type: cell-based; settings: human
PBMC [7] = test: Induction of intracellular ROS level in human PBMC cells by flow cytometry; assay type: functional, cell-based
[8] = Cytotoxicity against mouse NIH/3T3 cells at 1.25 uM; assay type: cell-based; settings: nih3t3, 1.25 µM
HT-29 = test: Cytotoxicity against human HT-29 cells at 0.3 to 0.625 uM; assay type: functional
MCF7 [9] = test: Cytotoxicity against human MCF7 cells at 0.3 to 0.625 uM; assay type: functional
B-CLL [10] = test: Cytotoxicity against human B-CLL cells assessed as reduction in cell viability at 10 uM; assay type: functional, cell-based
MCF7 [11] = test: Cytotoxicity against human MCF7 cells at 0.3 uM; assay type: functional
[12] = Cytotoxicity against human B-CLL cells assessed as reduction in cell viability at 500 nM relative to untreated control; assay type: functional
[13] = Cytotoxicity against human B-CLL cells assessed as reduction in cell viability at 1 uM relative to untreated control; assay type: functional
A549 [14] = test: Cytotoxicity against human A549 cells at 0.3 uM; assay type: functional

Structure (SMILES): O=C1C([Se]c2ccccc2)=C([Se]c2ccccc2)C(=O)c2ccccc21
- Activity (B-CLL [1]): Active
- Activity (PBMC [2]): Non-toxic

Structure (SMILES): O=C1C([Te]c2ccccc2)=C([Te]c2ccccc2)C(=O)c2ccccc21
- viability at 10 µM (K562): 15%
- Activity (B-CLL [3]): Active
- Activity (A549 [4]): <50%
- Activity (B-CLL [1]): Active
- Activity (B-CLL [5]): Active
- Activity (PBMC [6]): inactive
- Activity (HUVEC): < 50%
- Activity (PBMC [7]): inactive
- Activity [8]: < 50%
- Activity (HT-29): <50%
- Activity (MCF7 [9]): <50%
- Activity (PBMC [2]): Non-toxic

Structure (SMILES): O=C1C(Sc2ccccc2)=C(Sc2ccccc2)C(=O)c2ccccc21
- Activity (B-CLL [10]): Active
- Activity (B-CLL [1]): Active

Structure (SMILES): CC1=C([Te]c2ccccc2)C(=O)c2ccccc2C1=O
- viability at 10 µM (K562): 4.1%
- Activity (MCF7 [11]): <50%
- Activity (B-CLL [1]): Active
- Activity (B-CLL [5]): Active
- Ratio [12]: 3.17
- Activity (HUVEC): < 50%
- Activity (PBMC [7]): inactive
- Activity [8]: < 50%
- Ratio [13]: 5.03
- Activity (PBMC [2]): Non-toxic
- Activity (A549 [14]): <50%

Structure (SMILES): O=C1C([Se]c2ccccc2)=C([Se]c2ccccc2)C(=O)c2c(O)ccc(O)c21
- Activity (B-CLL [10]): Active
- Activity (B-CLL [1]): Active
- Activity (PBMC [2]): Toxic

Structure (SMILES): CC1=C([Te]c2ccc(O)cc2)C(=O)c2ccccc2C1=O
- viability at 10 µM (K562): 30%
- Activity (B-CLL [1]): inactive

Structure (SMILES): CCOC(C[Se]C1=C([Se]CC(OCC)OCC)C(=O)c2ccccc2C1=O)OCC
- viability at 10 µM (K562): 8.6%
